Measured values published in patent US11026876B2, “Composition for improving skin condition comprising chemokines” (TEGO SCIENCE INC., priority 2016, dated 2021).

B1: thymus-expressed chemokine (protein, UniProt O15444 24-150, looked up)
C-C motif chemokine 25: QGVFEDCCLAYHYPIGWAVLRRAWTYRIQEVSGSCNLPAAIFYLPKRHRKVCGNPKSREVQRAMKLLDARNKVFAKLHHNTQTFQAGPHAVKKLSSGNSKLSSSKFSNPISSSKRNVSLLISANSGL

Experiments:
Type in all cases: cell-based
[1] = system: wound on Neoderm®-ED three-dimensional skin culture model; assay: Wound-healing effect (re-epithelialization) in three-dimensional skin culture model; details: 500 ng/ml chemokine, five days, FIG. 2; for length of re-epithelialization compared to the negative control: 4-mm biopsy punch wound, vs untreated group; for length of re-epithelialization relative to SDF-1α: vs SDF-1α
Protocol: A Neoderm®-ED (TEGO Science, Korea) consisting of the dermis including collagen and fibroblasts and the epidermis including keratinocytes was prepared. A wound was induced on the Neoderm®-ED using a 4-mm biopsy punch, and the wound was treated with a 500 ng/ml chemokine (BLC (CXCL13) or TECK (CCL25)) and incubated in a humid environment of 37° C. and 10% CO2 for five days. The cultured Neoderm®-ED tissue was separated from insert wells and stained with hematoxylin and eosin (H&E staining). The stained tissue was placed on a glass slide and photographed under a microscope. The obtained images were analyzed using Image-Pro™ image analysis software (Media Cybernetics, Inc., United States) to measure a length of re-epithelialization of the wound.

[2] = system: collagen IV; assay: Expression of collagen IV in three-dimensional skin culture model (immunofluorescence); details: 100 ng/ml chemokine, 48 hours, Neoderm®-ED, FIG. 4; for expression of collagen IV compared to SDF-1α: vs SDF-1α; for expression of collagen IV compared to the negative control: vs untreated group
Protocol: (§1) To evaluate the effects of skin regeneration and skin elasticity improvement, a Neoderm®-ED was treated with a 100 ng/ml chemokine (BLC (CXCL13) or TECK (CCL25)) and incubated in a humid environment of 37° C. and 10% CO2 for 48 hours. Then, the Neoderm®-ED was reacted with primary antibodies that bind to markers (i.e., proliferation marker Ki-67 and collagen IV) used to confirm the ability to induce skin regeneration and skin elasticity and then with secondary antibodies labeled with a fluorescent substance. Cell nuclei were stained with 4′,6-diamidino-2-phenylindole (DAPI).

[3] = system: keratinocytes; assay: Evaluation of chemotaxis of keratinocytes (Transwell insert migration); details: six hours, FIG. 1; for migration of keratinocytes compared to the negative control: 100 or 500 ng/ml chemokine in lower chamber, vs group not treated with a chemokine; for number of migrated keratinocytes relative to SDF-1α: 100 or 500 ng/ml chemokine, vs SDF-1α positive control
Protocol: The keratinocytes isolated from normal skin tissue were cocultured with 3T3 feeder cells in a DMEM/F12 medium (Invitrogen™, Thermo Fisher Scientific Inc., United States) containing 10% fetal bovine serum (FBS) in a humid environment of 37° C. and 10% CO2. When the cultured cells grew by 70 to 80%, the 3T3 feeder cells were removed and only the keratinocytes were isolated using trypsin-EDTA.
To evaluate chemotaxis of keratinocytes in response to BLC (CXCL13) or TECK (CCL25), cells were cultured using a Transwell® insert (Falcon®, Corning Incorporated, United States) with an opening size of 8 μm, and the number of cells migrated passing through micropores in the insert toward the chemokine were counted. Specifically, the lower chamber of the insert was treated with a chemokine (100 or 500 ng/ml BLC (CXCL13) or 100 or 500 ng/ml TECK (CCL25)), and then cells were placed in wells of the insert in a ratio of 1×10^4 cells per well. After cell incubation in a humid environment of 37° C. and 10% CO2 for six hours, the insert membrane was stained with hematoxylin, and then the number of migrated cells were counted.

[4] = system: proliferation marker Ki-67; assay: Expression of proliferation marker Ki-67 in three-dimensional skin culture model (immunofluorescence); details: 100 ng/ml chemokine, 48 hours, Neoderm®-ED, FIGS. 3 and 5; for expression of proliferation marker Ki-67 compared to SDF-1α: vs SDF-1α; for expression of proliferation marker Ki-67 compared to the negative control: vs untreated group
Protocol: as §1

Row | Molecule | length of re-epithelialization compared to the negative control [1] | length of re-epithelialization relative to SDF-1α [1] | expression of collagen IV compared to SDF-1α [2] | expression of collagen IV compared to the negative control [2] | migration of keratinocytes compared to the negative control [3] | number of migrated keratinocytes relative to SDF-1α [3] | expression of proliferation marker Ki-67 compared to SDF-1α [4] | expression of proliferation marker Ki-67 compared to the negative control [4]
1 | B lymphocyte chemoattractant [BLC (CXCL13)] | significantly greater length | at least a three times greater length | increased more significantly | increased | increased | at least five times more | increased more significantly | increased
2 | B1 | significantly greater length | at least a three times greater length | increased more significantly | increased | increased | at least five times more | increased more significantly | increased
